The source of these data is publication PMC5218480 (PLoS ONE, 2017).

This assay deals with MV-4-11 cells. Kind of assay: Gene expression microarray analysis (Affymetrix PrimeView) and GSEA. The assay is classed as cell-based, human. On the set-up: RFU PODN (11730768_x_at) / Fold change /veh PODN (11730768_x_at) / RFU LINC00158 (11744669_a_at) / Fold change /veh LINC00158 (11744669_a_at) / RFU DUSP10 (11751237_a_at) / Fold change /veh DUSP10 (11751237_a_at) / RFU ID3 (11757404_x_at) / Fold change /veh ID3 (11757404_x_at) / RFU PLEKHG5 (11737974_s_at) / Fold change /veh PLEKHG5 (11737974_s_at) / RFU LRRC4B (11730491_at) / Fold change /veh LRRC4B (11730491_at) / RFU GIMAP4 (11747438_a_at) / Fold change /veh GIMAP4 (11747438_a_at) / RFU KRT8 (11758183_x_at) / Fold change /veh KRT8 (11758183_x_at) / RFU CNN1 (11734310_a_at) / Fold change /veh CNN1 (11734310_a_at) / RFU VPS37D (11726825_at) / Fold change /veh VPS37D (11726825_at) / RFU C10orf10 (11716522_x_at) / Fold change /veh C10orf10 (11716522_x_at) / RFU KIR2DL2 /// KIR2DL4 /// KIR2DL5A /// KIR2DL5B /// KIR2DS1 /// KIR2DS2 /// KIR2DS3 /// KIR2DS4 /// KIR3DL3 /// KIR3DL3 /// KIR3DS1 (11738374_at) / Fold change /veh KIR2DL2 /// KIR2DL4 /// KIR2DL5A /// KIR2DL5B /// KIR2DS1 /// KIR2DS2 /// KIR2DS3 /// KIR2DS4 /// KIR3DL3 /// KIR3DL3 /// KIR3DS1 (11738374_at) / RFU C1QL1 (11718748_at) / Fold change /veh C1QL1 (11718748_at) / RFU TMPRSS4 (11747572_a_at) / Fold change /veh TMPRSS4 (11747572_a_at) / RFU HAMP (11756126_x_at) / Fold change /veh HAMP (11756126_x_at) / RFU RNFT2 (11725882_a_at) / Fold change /veh RNFT2 (11725882_a_at) / RFU NR4A2 (11747474_a_at) / Fold change /veh NR4A2 (11747474_a_at) / RFU ABCC12 (11746883_a_at) / Fold change /veh ABCC12 (11746883_a_at) / RFU TMEM136 (11760407_x_at) / Fold change /veh TMEM136 (11760407_x_at) / RFU CLDN22 /// WWC2 (11732394_at) / Fold change /veh CLDN22 /// WWC2 (11732394_at) / RFU HLA-DPB1 (11760878_x_at) / Fold change /veh HLA-DPB1 (11760878_x_at) / RFU SPINT1 (11716480_a_at) / Fold change /veh SPINT1 (11716480_a_at) / RFU GAP43 (11754022_s_at) / Fold change /veh GAP43 (11754022_s_at) / RFU A4GNT (11735810_at) / Fold change /veh A4GNT (11735810_at) / RFU PRB3 (11715151_x_at) / Fold change /veh PRB3 (11715151_x_at) / RFU TUBB4B (11761932_at) / Fold change /veh TUBB4B (11761932_at) / RFU CAPN14 (11732068_a_at) / Fold change /veh CAPN14 (11732068_a_at) / RFU TMCC2 (11721928_a_at) / Fold change /veh TMCC2 (11721928_a_at) / RFU IRGQ (11745062_a_at) / Fold change /veh IRGQ (11745062_a_at) / RFU FAM174B (11720279_a_at) / Fold change /veh FAM174B (11720279_a_at) / RFU TMPRSS4 (11748680_a_at) / Fold change /veh TMPRSS4 (11748680_a_at) / RFU FAM212B (11763350_a_at) / Fold change /veh FAM212B (11763350_a_at) / RFU PLEKHG5 (11743358_a_at) / Fold change /veh PLEKHG5 (11743358_a_at) / RFU ZSCAN30 (11745921_a_at) / Fold change /veh ZSCAN30 (11745921_a_at) / RFU CMKLR1 (11741424_a_at) / Fold change /veh CMKLR1 (11741424_a_at) / RFU LOC101060620 /// MAPK8IP1 (11723275_at) / Fold change /veh LOC101060620 /// MAPK8IP1 (11723275_at) / RFU SPTSSB (11747773_x_at) / Fold change /veh SPTSSB (11747773_x_at) / RFU PRSS12 (11739890_at) / Fold change /veh PRSS12 (11739890_at) / RFU BIN1 (11741810_x_at) / Fold change /veh BIN1 (11741810_x_at) / RFU WNT11 (11732464_a_at) / Fold change /veh WNT11 (11732464_a_at) / RFU C10orf10 (11716521_a_at) / Fold change /veh C10orf10 (11716521_a_at) / RFU C5orf56 (11738089_at) / Fold change /veh C5orf56 (11738089_at) / RFU CYB561 (11721691_x_at) / Fold change /veh CYB561 (11721691_x_at) / RFU ANKRD19P (11752326_a_at) / Fold change /veh ANKRD19P (11752326_a_at) / RFU OR2T12 /// OR2T33 /// OR2T8 (11738714_s_at) / Fold change /veh OR2T12 /// OR2T33 /// OR2T8 (11738714_s_at) / RFU VCAN (11748164_a_at) / Fold change /veh VCAN (11748164_a_at) / RFU JSRP1 (11732532_at) / Fold change /veh JSRP1 (11732532_at) / RFU KRTAP10-11 (11738290_x_at) / Fold change /veh KRTAP10-11 (11738290_x_at) / RFU MYO3A (11730013_a_at) / Fold change /veh MYO3A (11730013_a_at) / RFU EBF3 (11725865_a_at) / Fold change /veh EBF3 (11725865_a_at) / RFU CAMK2N1 (11719241_x_at) / Fold change /veh CAMK2N1 (11719241_x_at) / RFU C5orf56 (11738088_a_at) / Fold change /veh C5orf56 (11738088_a_at) / RFU OLFML3 (11715873_a_at) / Fold change /veh OLFML3 (11715873_a_at) / RFU LOC100653217 /// NTM (11731650_a_at) / Fold change /veh LOC100653217 /// NTM (11731650_a_at) / RFU MAPK11 (11762145_a_at) / Fold change /veh MAPK11 (11762145_a_at) / RFU FIZ1 (11724087_x_at) / Fold change /veh FIZ1 (11724087_x_at) / RFU OASL (11726364_x_at) / Fold change /veh OASL (11726364_x_at) / RFU SOX15 (11748057_x_at) / Fold change /veh SOX15 (11748057_x_at) / RFU CD79A (11719716_a_at) / Fold change /veh CD79A (11719716_a_at) / RFU HIST1H1D (11736915_at) / Fold change /veh HIST1H1D (11736915_at) / RFU CASKIN2 (11723855_a_at) / Fold change /veh CASKIN2 (11723855_a_at) / RFU LOC730098 (11760151_x_at) / Fold change /veh LOC730098 (11760151_x_at) / RFU OR4N2 (11742367_at) / Fold change /veh OR4N2 (11742367_at) / RFU PRRT2 (11749266_a_at) / Fold change /veh PRRT2 (11749266_a_at) / RFU SNX32 (11753110_a_at) / Fold change /veh SNX32 (11753110_a_at) / RFU CDHR5 (11726645_a_at) / Fold change /veh CDHR5 (11726645_a_at) / RFU RCAN1 (11760418_a_at) / Fold change /veh RCAN1 (11760418_a_at) / RFU FAM167A (11723789_a_at) / Fold change /veh FAM167A (11723789_a_at) / RFU FAM26E (11764081_at) / Fold change /veh FAM26E (11764081_at) / RFU ISYNA1 (11749810_s_at) / Fold change /veh ISYNA1 (11749810_s_at) / RFU ACY1 (11761880_at) / Fold change /veh ACY1 (11761880_at) / RFU 11764098_at / Fold change /veh 11764098_at / RFU SAMD14 (11745864_x_at) / Fold change /veh SAMD14 (11745864_x_at) / RFU NPB (11741838_a_at) / Fold change /veh NPB (11741838_a_at) / RFU TMPRSS6 (11731388_a_at) / Fold change /veh TMPRSS6 (11731388_a_at) / RFU KRTAP10-2 (11738614_at) / Fold change /veh KRTAP10-2 (11738614_at) / RFU ARHGAP8 /// PRR5-ARHGAP8 (11727945_x_at) / Fold change /veh ARHGAP8 /// PRR5-ARHGAP8 (11727945_x_at) / RFU KRTAP5-7 /// NADSYN1 (11734609_at) / Fold change /veh KRTAP5-7 /// NADSYN1 (11734609_at) / RFU RASL12 (11751679_a_at) / Fold change /veh RASL12 (11751679_a_at) / RFU CDKN2B (11736163_a_at) / Fold change /veh CDKN2B (11736163_a_at) / RFU PRF1 (11729649_at) / Fold change /veh PRF1 (11729649_at) / RFU, ZNF638 /// ZNF638-IT1 / Fold change vs veh, ZNF638 /// ZNF638-IT1 / RFU, PANK3 / Fold change vs veh, PANK3 / RFU, SH3YL1 / Fold change vs veh, SH3YL1 / RFU, ZEB2 / Fold change vs veh, ZEB2 / RFU, NRIP1 / Fold change vs veh, NRIP1 / RFU, PTTG1IP / Fold change vs veh, PTTG1IP / RFU, CAPN2 / Fold change vs veh, CAPN2 / RFU, MED14 / Fold change vs veh, MED14 / RFU, SNORA58 / Fold change vs veh, SNORA58 / RFU, C1orf63 / Fold change vs veh, C1orf63 / RFU, LRRFIP1 / Fold change vs veh, LRRFIP1 / RFU, NDUFAF7 / Fold change vs veh, NDUFAF7 / RFU, SLC12A2 / Fold change vs veh, SLC12A2 / RFU, IBTK / Fold change vs veh, IBTK / RFU, ESF1 / Fold change vs veh, ESF1 / Fold change vs veh, TMEM50B / RFU, TAOK1 / Fold change vs veh, TAOK1 / RFU, ACBD3 / Fold change vs veh, ACBD3 / RFU, TMA16 / Fold change vs veh, TMA16 / RFU, RWDD3 / Fold change vs veh, RWDD3 / RFU, BCAT1 / Fold change vs veh, BCAT1 / RFU, EDEM3 / Fold change vs veh, EDEM3 / RFU, TMEM33 / Fold change vs veh, TMEM33 / RFU, WDR75 / Fold change vs veh, WDR75 / RFU, AHCTF1 / Fold change vs veh, AHCTF1 / RFU, TFRC / Fold change vs veh, TFRC / RFU, ZDHHC17 / Fold change vs veh, ZDHHC17 / RFU, NOM1 / Fold change vs veh, NOM1 / RFU, ARL8B / Fold change vs veh, ARL8B / RFU, ZBTB11 / Fold change vs veh, ZBTB11 / RFU, TAMM41 / Fold change vs veh, TAMM41 / RFU, KIAA1704 /// LOC100996395 / Fold change vs veh, KIAA1704 /// LOC100996395 / RFU, ING1 / Fold change vs veh, ING1 / RFU, TRMT61B / Fold change vs veh, TRMT61B / RFU, FUBP3 / Fold change vs veh, FUBP3 / RFU, TP53 / Fold change vs veh, TP53 / RFU, TNKS2 / Fold change vs veh, TNKS2 / RFU, ZFP14 / Fold change vs veh, ZFP14 / RFU, ACTR2 / Fold change vs veh, ACTR2 / RFU, PPP3R1 / Fold change vs veh, PPP3R1 / RFU, PIK3R1 / Fold change vs veh, PIK3R1 / RFU, HNRNPA1 / Fold change vs veh, HNRNPA1 / RFU, RNF170 / Fold change vs veh, RNF170 / RFU, ZNF28 / Fold change vs veh, ZNF28 / RFU, RNGTT / Fold change vs veh, RNGTT / RFU, OGT / Fold change vs veh, OGT / RFU, BRD1 / Fold change vs veh, BRD1 / RFU, MARS / Fold change vs veh, MARS / RFU, ZNF655 / Fold change vs veh, ZNF655 / RFU, FAHD1 / Fold change vs veh, FAHD1 / RFU, BDP1 / Fold change vs veh, BDP1 / RFU, LRRCC1 / Fold change vs veh, LRRCC1 / RFU, ARID1A / Fold change vs veh, ARID1A / RFU, ZNF146 / Fold change vs veh, ZNF146 / RFU, ZNF330 / Fold change vs veh, ZNF330 / RFU, GPN3 / Fold change vs veh, GPN3 / RFU, C9orf123 / Fold change vs veh, C9orf123 / RFU, N4BP2L2 / Fold change vs veh, N4BP2L2 / RFU, ARFIP1 / Fold change vs veh, ARFIP1 / RFU, FAM179B / Fold change vs veh, FAM179B / RFU, BCL10 / Fold change vs veh, BCL10 / RFU, UHRF1BP1L / Fold change vs veh, UHRF1BP1L / RFU, BET1 / Fold change vs veh, BET1 / RFU, CNOT2 / Fold change vs veh, CNOT2 / RFU, ZNF268 / Fold change vs veh, ZNF268 / Fold change vs veh, ZNF507 / RFU, DGCR2 / Fold change vs veh, DGCR2 / RFU, WDSUB1 / Fold change vs veh, WDSUB1 / Fold change vs veh, HSP90B1 /// MIR3652 / RFU, ADSS / Fold change vs veh, ADSS / RFU, GK / Fold change vs veh, GK / RFU, ZNF148 / Fold change vs veh, ZNF148 / RFU, TAF9 / Fold change vs veh, TAF9 / RFU, SLC1A5 / Fold change vs veh, SLC1A5 / RFU, SLMO2 / Fold change vs veh, SLMO2 / RFU, ABCC4 / Fold change vs veh, ABCC4 / RFU, LOC101060439 /// RAP1B / Fold change vs veh, LOC101060439 /// RAP1B / RFU, RFX7 / Fold change vs veh, RFX7 / RFU, GTPBP10 / Fold change vs veh, GTPBP10 / RFU, CNEP1R1 / Fold change vs veh, CNEP1R1 / RFU, BIVM-ERCC5 /// ERCC5 / Fold change vs veh, BIVM-ERCC5 /// ERCC5 / RFU, ILF3 / Fold change vs veh, ILF3 / RFU 11762660_at / Fold change /veh 11762660_at / RFU VCAN (11757783_s_at) / Fold change /veh VCAN (11757783_s_at) / RFU DDX43 (11728927_at) / Fold change /veh DDX43 (11728927_at) / RFU KRT8 (11758188_x_at) / Fold change /veh KRT8 (11758188_x_at) / RFU NKD1 (11759106_at) / Fold change /veh NKD1 (11759106_at) / RFU SRD5A1 (11742802_a_at) / Fold change /veh SRD5A1 (11742802_a_at) / RFU TPSAB1 /// TPSB2 (11721975_s_at) / Fold change /veh TPSAB1 /// TPSB2 (11721975_s_at) / RFU GSTM3 (11746129_a_at) / Fold change /veh GSTM3 (11746129_a_at) / RFU IL23R (11737362_x_at) / Fold change /veh IL23R (11737362_x_at) / RFU TMEM51 (11727254_a_at) / Fold change /veh TMEM51 (11727254_a_at) / RFU PIWIL2 (11732686_x_at) / Fold change /veh PIWIL2 (11732686_x_at) / RFU ORM1 (11744905_x_at) / Fold change /veh ORM1 (11744905_x_at) / RFU CCDC152 (11743942_at) / Fold change /veh CCDC152 (11743942_at) / RFU ECM1 (11717891_a_at) / Fold change /veh ECM1 (11717891_a_at) / RFU IL23R (11748794_a_at) / Fold change /veh IL23R (11748794_a_at) / RFU TNFAIP8L3 (11732012_x_at) / Fold change /veh TNFAIP8L3 (11732012_x_at) / RFU MBOAT4 (11741988_at) / Fold change /veh MBOAT4 (11741988_at) / RFU 11764193_at / Fold change /veh 11764193_at / RFU TMEM53 (11763286_at) / Fold change /veh TMEM53 (11763286_at) / RFU MAGEB2 (11727129_at) / Fold change /veh MAGEB2 (11727129_at) / RFU TMEM200A (11744735_a_at) / Fold change /veh TMEM200A (11744735_a_at) / RFU CCDC152 (11751479_a_at) / Fold change /veh CCDC152 (11751479_a_at) / RFU FAM211A (11726209_a_at) / Fold change /veh FAM211A (11726209_a_at) / RFU RGS16 (11746705_a_at) / Fold change /veh RGS16 (11746705_a_at) / RFU VCAN (11755009_s_at) / Fold change /veh VCAN (11755009_s_at) / RFU RHOB (11743442_s_at) / Fold change /veh RHOB (11743442_s_at) / RFU RGS16 (11720943_a_at) / Fold change /veh RGS16 (11720943_a_at) / RFU RGS16 (11720944_at) / Fold change /veh RGS16 (11720944_at) / RFU, VPS4B / Fold change vs veh, VPS4B / RFU, CREB1 / Fold change vs veh, CREB1 / RFU, DNAJC13 / Fold change vs veh, DNAJC13 / RFU, GNAQ / Fold change vs veh, GNAQ / RFU, CDK5R1 / Fold change vs veh, CDK5R1 / RFU, ZRANB3 / Fold change vs veh, ZRANB3 / RFU, CUL4A / Fold change vs veh, CUL4A / RFU, CCNY / Fold change vs veh, CCNY / RFU, UFL1 / Fold change vs veh, UFL1 / RFU, COG3 / Fold change vs veh, COG3 / RFU, DIAPH2 / Fold change vs veh, DIAPH2 / RFU, SKA2 / Fold change vs veh, SKA2 / RFU, AFF3 / Fold change vs veh, AFF3 / RFU, LMF1 / Fold change vs veh, LMF1 / RFU, IPO11 / Fold change vs veh, IPO11 / RFU, DFFB / Fold change vs veh, DFFB / RFU, FOXP1 / Fold change vs veh, FOXP1 / RFU, CARD8 / Fold change vs veh, CARD8 / RFU, STRN3 / Fold change vs veh, STRN3 / RFU, ADK / Fold change vs veh, ADK / RFU, RASSF2 / Fold change vs veh, RASSF2 / RFU, WIPF1 / Fold change vs veh, WIPF1 / RFU, LARP1B / Fold change vs veh, LARP1B / RFU, RASA1 / Fold change vs veh, RASA1 / RFU, RB1 / Fold change vs veh, RB1 / RFU, PPFIA1 / Fold change vs veh, PPFIA1 / RFU, MAT2A / Fold change vs veh, MAT2A / RFU, CCT5 / Fold change vs veh, CCT5 / RFU, WDR92 / Fold change vs veh, WDR92 / RFU, CUX1 / Fold change vs veh, CUX1 / RFU, TTC7A / Fold change vs veh, TTC7A / RFU, TMEM135 / Fold change vs veh, TMEM135 / RFU, DEPTOR / Fold change vs veh, DEPTOR / RFU, CPM / Fold change vs veh, CPM / RFU, DNAJB6 / Fold change vs veh, DNAJB6 / RFU, CACNA2D3 / Fold change vs veh, CACNA2D3 / RFU, DTX4 / Fold change vs veh, DTX4 / RFU, TFCP2 / Fold change vs veh, TFCP2 / RFU, GMCL1 /// GMCL1P1 / Fold change vs veh, GMCL1 /// GMCL1P1 / RFU, AEBP2 / Fold change vs veh, AEBP2 / RFU, SNHG1 /// SNORD22 /// SNORD25 /// SNORD26 /// SNORD27 /// SNORD28 /// SNORD29 /// SNORD31 / Fold change vs veh, SNHG1 /// SNORD22 /// SNORD25 /// SNORD26 /// SNORD27 /// SNORD28 /// SNORD29 /// SNORD31 / Fold change (Aza/veh), C12orf56 (ProbeSet 11735607_a_at) / Fold change (ACY-1035/veh), C12orf56 (ProbeSet 11735607_a_at) / Fold change (Aza/veh), FGFR1OP (ProbeSet 11751329_s_at) / Fold change (ACY-1035/veh), FGFR1OP (ProbeSet 11751329_s_at) / Fold change (Aza/veh), VPS36 (ProbeSet 11739960_a_at) / Fold change (ACY-1035/veh), VPS36 (ProbeSet 11739960_a_at) / RFU SYPL1 (11715823_x_at) / Fold change /veh SYPL1 (11715823_x_at) / RFU IGFBP7 (11715501_s_at) / Fold change /veh IGFBP7 (11715501_s_at) / RFU REEP3 (11722064_at) / Fold change /veh REEP3 (11722064_at) / RFU IGLL1 (11728026_x_at) / Fold change /veh IGLL1 (11728026_x_at): dose or concentration left out as unconfirmed. Particulars: ProbeSet 11757113_a_at; LIST D.

For `Nc1ncn([C@@H]2O[C@H](CO)[C@@H](O)[C@H]2O)c(=O)n1` [azacitidine], the “Fold change vs veh, SNHG1 /// SNORD22 /// SNORD25 /// SNORD26 /// SNORD27 /// SNORD28 /// SNORD29 /// SNORD31” value is recorded as 0.81.
